Reference: the supplement of paper PMC10307832

What was measured:
Assay in all cases: relative viability (nuclei count vs DMSO), 5 days (fraction); higher = more cells survive
RO-3306 + Navitoclax = compound: C1=CC2=C(C=CC(=C2)C=C3C(=O)NC(=NCC4=CC=CS4)S3)N=C1 [RO-3306] + CC1(C)CCC(c2ccc(Cl)cc2)=C(CN2CCN(c3ccc(C(=O)NS(=O)(=O)c4ccc(N[C@H](CCN5CCOCC5)CSc5ccccc5)c(S(=O)(=O)C(F)(F)F)c4)cc3)CC2)C1 [Navitoclax] (partner 0.5 µM)
In short: (§1)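 The day after seeding in 1536-well plates, lung cancer cell lines were treated by pin tool with a single drug, or with a fixed anchor-drug dose together with five library-drug doses (not always all listed) in √10 steps. After 5 days, a combined fix-and-stain solution (final 0.05% Triton X-100, 1% formaldehyde, 1 ug/ml Hoechst) was added. Nuclei counted on 4× images gave relative viability as treated counts over vehicle counts, reported as the median of duplicate plates.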

RO-3306 + Pictilisib = compound: C1=CC2=C(C=CC(=C2)C=C3C(=O)NC(=NCC4=CC=CS4)S3)N=C1 [RO-3306] + CS(=O)(=O)N1CCN(Cc2cc3nc(-c4cccc5[nH]ncc45)nc(N4CCOCC4)c3s2)CC1 [Pictilisib] (partner 1 µM)
In short: as §1

[1] = compound: O=S(=O)(c1ccccc1)N(CC(F)(F)F)c1ccc(C(O)(C(F)(F)F)C(F)(F)F)cc1 + COc1cccc2cc(-c3nc([C@H]4CC[C@H](C(=O)O)CC4)n4ncnc(N)c34)[nH]c12 [OSI-027] (partner 0.5 µM)
In short: as §1

[2] = compound: O=S(=O)(c1ccccc1)N(CC(F)(F)F)c1ccc(C(O)(C(F)(F)F)C(F)(F)F)cc1 + O=C(CCCCCCC(=O)Nc1ccccc1)NO [Vorinostat] (partner 1 µM)
In short: as §1

| Cell Line | relative viability (RO-3306 + Navitoclax; first compound 0.01 µM) | relative viability (RO-3306 + Navitoclax; first compound 0.03162 µM) | relative viability (RO-3306 + Navitoclax; first compound 0.1 µM) | relative viability (RO-3306 + Navitoclax; first compound 0.3162 µM) | relative viability (RO-3306 + Navitoclax; first compound 1 µM) | relative viability (RO-3306 + Pictilisib; first compound 0.01 µM) | relative viability (RO-3306 + Pictilisib; first compound 0.03162 µM) | relative viability (RO-3306 + Pictilisib; first compound 0.1 µM) | relative viability (RO-3306 + Pictilisib; first compound 0.3162 µM) | relative viability (RO-3306 + Pictilisib; first compound 1 µM) | relative viability ([1]; first compound 0.8 µM) | relative viability ([1]; first compound 2.53 µM) | relative viability ([1]; first compound 8 µM) | relative viability ([2]; first compound 0.8 µM) | relative viability ([2]; first compound 2.53 µM) | relative viability ([2]; first compound 8 µM) |
| --- | --- | --- | --- | --- | --- | --- | --- | --- | --- | --- | --- | --- | --- | --- | --- | --- |
| SK-MES-1 | 1.36 | 1.25 | 1.22 | 1.36 | 1.2 | 0.324 | 0.334 | 0.353 | 0.413 | 0.355 | 0.639 | 0.647 | 0.443 | 1.09 | 1.18 | 0.915 |
| H3255 | 0.458 | 0.484 | 0.558 | 0.47 | 0.428 | 0.556 | 0.486 | 0.481 | 0.491 | 0.56 | 0.63 | 0.597 | 0.603 | 0.716 | 0.752 | 0.667 |
| NCI-H2087 | 0.999 | 1.15 | 0.995 | 1.08 | 0.937 | 0.988 | 0.698 | 1.01 | 0.974 | 0.836 | 0.6 | 0.487 | 0.622 | 0.89 | 0.509 | 0.946 |
| NCI-H1666 | 0.954 | 0.871 | 0.858 | 0.86 | 0.779 | 0.451 | 0.407 | 0.389 | 0.35 | 0.406 | 0.849 | 0.819 | 0.813 | 0.712 | 0.823 | 0.809 |
| SK-LU-1 | 1.08 | 0.837 | 0.774 | 0.926 | 0.832 | 0.539 | 0.603 | 0.651 | 0.671 | 0.521 | 0.355 | 0.286 | 0.358 | 0.797 | 0.705 | 0.727 |
| NCI-H727 | 0.45 | 0.395 | 0.433 | 0.471 | 0.455 | 0.355 | 0.356 | 0.438 | 0.319 | 0.41 | 0.669 | 0.474 | 0.631 | 1.18 | 0.853 | 1.03 |
| NCI-H1755 | 1.1 | 0.919 | 1.04 | 1.01 | 1.05 | 0.523 | 0.376 | 0.424 | 0.457 | 0.473 | 0.712 | 0.657 | 0.691 | 0.907 | 0.679 | 0.592 |
| NCI-H1650 | 1.15 | 1.11 | 1.19 | 1.19 | 0.974 | 0.491 | 0.503 | 0.48 | 0.583 | 0.414 | 0.58 | 0.542 | 0.603 | 0.511 | 0.496 | 0.58 |
| HARA | 1.16 | 1.11 | 1.17 | 1.12 | 1.37 | 0.367 | 0.247 | 0.457 | 0.394 | 0.358 | 0.397 | 0.469 | 0.425 | 0.507 | 0.509 | 0.388 |
| NCI-H1944 | 1.11 | 1.03 | 0.963 | 1.09 | 0.993 | 0.283 | 0.299 | 0.313 | 0.368 | 0.325 | 0.423 | 0.385 | 0.401 | 0.686 | 0.561 | 0.521 |
| RERF-LC-KJ | 1.36 | 1.03 | 0.815 | 0.684 | 0.997 | 0.563 | 0.487 | 0.591 | 0.552 | 0.435 | 0.545 | 0.599 | 0.556 | 0.735 | 0.588 | 0.616 |
| NCI-H647 | 1.45 | 1.24 | 1.07 | 1.24 | 0.966 | 0.326 | 0.464 | 0.401 | 0.454 | 0.299 | 0.592 | 0.498 | 0.681 | 0.304 | 0.404 | 0.655 |
| NCI-H838 | 1.26 | 1.14 | 1.17 | 1.19 | 1.21 | 0.411 | 0.34 | 0.432 | 0.505 | 0.393 | 0.411 | 0.412 | 0.467 | 0.812 | 0.737 | 0.699 |
| NCI-H2170 | 0.571 | 0.447 | 0.593 | 0.62 | 0.595 | 0.292 | 0.303 | 0.305 | 0.312 | 0.334 | 0.653 | 0.663 | 0.685 | 0.863 | 0.695 | 0.761 |
| COR-L 105 | 0.823 | 0.814 | 0.742 | 0.842 | 0.688 | 0.355 | 0.364 | 0.361 | 0.47 | 0.366 | 0.763 | 0.581 | 0.715 | 0.615 | 0.706 | 0.66 |
| HOP-62 | 1.14 | 1.01 | 1.07 | 0.937 | 1.33 | 0.898 | 0.564 | 0.759 | 0.686 | 0.471 | 0.904 | 0.878 | 0.665 | 0.716 | 0.508 | 0.522 |
| A-427 | 1.05 | 0.978 | 0.959 | 0.936 | 0.993 | 0.707 | 0.735 | 0.638 | 0.781 | 0.483 | 0.434 | 0.479 | 0.676 | 0.85 | 0.803 | 0.812 |
| PC-14 | 1.11 |  | 1.06 | 1.19 | 1.18 | 0.892 | 0.539 | 0.648 | 0.592 | 0.511 | 0.991 | 0.886 | 0.44 | 0.63 | 0.857 | 0.656 |
| NCI-H1648 |  |  |  |  |  |  |  |  |  |  | 0.248 | 0.254 | 0.185 | 0.41 | 0.387 | 0.312 |
| NCI-H1437 | 1.16 | 0.996 | 1.05 | 1.13 | 1.1 | 0.403 | 0.364 | 0.372 | 0.472 | 0.449 | 0.915 | 0.811 | 0.822 | 0.787 | 0.572 | 0.665 |
